Assay results from patent US9776995B2, “Bicyclic sulfonamide compounds as sodium channel inhibitors” (AMGEN INC., priority 2013, dated 2017).

Target: Nav 1.7 (Homo sapiens (Human), UniProt Q15858)
Assay: Nav 1.7 in vitro PX assay (PatchXpress whole cell voltage clamp);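 further: holding potential set for 20 to 50% inactivation, sodium current evoked by a 20 ms step to −10 mV, peak current inhibition read after compound exposure, 3–5 cells per concentration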
Type: cell-based
[1] = in-vitro Nav 1.7 PX (PatchXpress)

Chain of Nav 1.7 (Q15858 whole entry): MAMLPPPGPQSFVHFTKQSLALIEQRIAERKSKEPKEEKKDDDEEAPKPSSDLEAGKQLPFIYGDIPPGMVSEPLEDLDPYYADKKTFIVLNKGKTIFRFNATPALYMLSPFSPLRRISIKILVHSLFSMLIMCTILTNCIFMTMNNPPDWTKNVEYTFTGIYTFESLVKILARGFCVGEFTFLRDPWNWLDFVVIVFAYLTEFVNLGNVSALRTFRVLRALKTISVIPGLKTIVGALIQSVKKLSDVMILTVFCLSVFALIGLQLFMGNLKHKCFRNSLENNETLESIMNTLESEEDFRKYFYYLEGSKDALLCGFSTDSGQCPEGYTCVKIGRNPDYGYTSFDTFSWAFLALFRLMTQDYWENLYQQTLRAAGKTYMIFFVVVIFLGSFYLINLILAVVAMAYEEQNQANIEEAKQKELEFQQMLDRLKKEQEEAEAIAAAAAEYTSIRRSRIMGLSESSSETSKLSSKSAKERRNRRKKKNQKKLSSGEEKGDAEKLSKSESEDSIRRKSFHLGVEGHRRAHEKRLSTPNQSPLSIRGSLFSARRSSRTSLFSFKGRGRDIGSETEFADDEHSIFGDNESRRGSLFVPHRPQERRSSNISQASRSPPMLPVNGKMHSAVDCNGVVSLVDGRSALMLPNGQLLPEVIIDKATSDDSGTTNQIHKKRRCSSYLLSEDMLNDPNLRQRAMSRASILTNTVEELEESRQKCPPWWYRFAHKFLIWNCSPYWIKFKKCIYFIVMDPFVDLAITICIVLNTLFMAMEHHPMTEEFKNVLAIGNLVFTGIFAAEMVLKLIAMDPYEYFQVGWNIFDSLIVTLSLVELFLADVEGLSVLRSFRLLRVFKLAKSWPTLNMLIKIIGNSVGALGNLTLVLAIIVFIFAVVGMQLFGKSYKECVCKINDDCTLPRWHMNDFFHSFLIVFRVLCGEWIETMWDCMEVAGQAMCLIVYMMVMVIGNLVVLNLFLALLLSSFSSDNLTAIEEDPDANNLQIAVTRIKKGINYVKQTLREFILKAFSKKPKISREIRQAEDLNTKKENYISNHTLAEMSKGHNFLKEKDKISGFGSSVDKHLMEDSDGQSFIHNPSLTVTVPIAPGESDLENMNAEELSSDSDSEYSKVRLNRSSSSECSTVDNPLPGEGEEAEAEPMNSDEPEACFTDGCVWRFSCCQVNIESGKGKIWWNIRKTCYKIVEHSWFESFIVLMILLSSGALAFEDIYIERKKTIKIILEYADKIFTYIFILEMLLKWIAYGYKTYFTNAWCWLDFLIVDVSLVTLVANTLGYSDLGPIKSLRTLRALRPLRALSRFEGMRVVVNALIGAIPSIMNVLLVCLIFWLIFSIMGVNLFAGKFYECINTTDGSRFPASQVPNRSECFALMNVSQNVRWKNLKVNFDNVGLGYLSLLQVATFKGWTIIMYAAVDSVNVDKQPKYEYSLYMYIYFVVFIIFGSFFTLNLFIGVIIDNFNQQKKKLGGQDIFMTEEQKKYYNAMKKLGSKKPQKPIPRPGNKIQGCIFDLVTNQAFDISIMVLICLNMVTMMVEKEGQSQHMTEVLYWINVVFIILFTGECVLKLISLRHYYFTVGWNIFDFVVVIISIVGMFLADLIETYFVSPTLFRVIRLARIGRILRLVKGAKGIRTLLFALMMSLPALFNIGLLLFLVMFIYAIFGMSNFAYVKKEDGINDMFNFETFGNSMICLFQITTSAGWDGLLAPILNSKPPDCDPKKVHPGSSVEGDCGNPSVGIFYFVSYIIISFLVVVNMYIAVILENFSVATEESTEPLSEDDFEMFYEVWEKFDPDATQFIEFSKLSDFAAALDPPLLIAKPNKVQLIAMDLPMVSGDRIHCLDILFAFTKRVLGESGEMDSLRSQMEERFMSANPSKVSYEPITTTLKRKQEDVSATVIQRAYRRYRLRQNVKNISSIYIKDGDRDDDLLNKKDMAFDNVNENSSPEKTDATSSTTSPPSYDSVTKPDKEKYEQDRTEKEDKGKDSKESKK

| SMILES | IC50 (PatchXpress (PX)) [nM] | IC50 [1] [nM] |
| --- | --- | --- |
| COc1cc(-c2cc(F)cc(F)c2)c(C)cc1-c1nccc2cc(S(=O)(=O)Nc3ccon3)ccc12 [Example 272, 1-(3′,5′-difluoro-5-methoxy-2-methyl-4-biphenylyl)-N-3-isoxazolyl-6-isoquinolinesulfonamide] | 31.9 | – |
| COc1cc(-c2cc(C)cc(F)c2)c(C)cc1-c1nccc2cc(S(=O)(=O)Nc3ccon3)ccc12 [Example 273, 1-(3′-fluoro-5-methoxy-2,5′-dimethyl-4-biphenylyl)-N-3-isoxazolyl-6-isoquinolinesulfonamide] | 73.3 | – |
| COc1cc(-c2ccc(F)c(C)c2)c(C)cc1-c1nccc2cc(S(=O)(=O)Nc3ccon3)ccc12 [Example 274, 1-(4′-fluoro-5-methoxy-2,3′-dimethyl-4-biphenylyl)-N-3-isoxazolyl-6-isoquinolinesulfonamide] | 63.2 | – |
| COc1cc(-c2cc(C)c(C)cc2C)c(C)cc1-c1nccc2cc(S(=O)(=O)Nc3ccon3)ccc12 [Example 275, N-3-isoxazolyl-1-(5-methoxy-2,2′,4′,5′-tetramethyl-4-biphenylyl)-6-isoquinolinesulfonamide] | 242 | – |
| COc1cc(-c2cccc(C)c2)c(C)cc1-c1nccc2cc(S(=O)(=O)Nc3ccon3)ccc12 [Example 276, N-3-isoxazolyl-1-(5-methoxy-2,3′-dimethyl-4-biphenylyl)-6-isoquinolinesulfonamide] | 169 | – |
| COc1cc(-c2cccc(Cl)c2)c(C)cc1-c1nccc2cc(S(=O)(=O)Nc3ccon3)ccc12 [Example 277, 1-(3′-chloro-5-methoxy-2-methyl-4-biphenylyl)-N-3-isoxazolyl-6-isoquinolinesulfonamide] | 40 | – |
| COc1cc(-c2cc(F)cnc2OC)c(C)cc1-c1nccc2cc(S(=O)(=O)Nc3ccon3)ccc12 [Example 279, 1-(4-(5-fluoro-2-methoxy-3-pyridinyl)-2-methoxy-5-methylphenyl)-N-3-isoxazolyl-6-isoquinolinesulfonamide] | – | 63 |
| COc1ccc(F)cc1-c1cc(OC)c(-c2nccc3cc(S(=O)(=O)Nc4ccon4)ccc23)cc1C [Example 280, 1-(5′-fluoro-2′,5-dimethoxy-2-methyl-4-biphenylyl)-N-3-isoxazolyl-6-isoquinolinesulfonamide] | – | 60.3 |
| COc1ccc(Cl)cc1-c1cc(OC)c(-c2nccc3cc(S(=O)(=O)Nc4ccon4)ccc23)cc1C [Example 281, 1-(5′-chloro-2′,5-dimethoxy-2-methyl-4-biphenylyl)-N-3-isoxazolyl-6-isoquinolinesulfonamide] | – | 16.4 |
| COc1cc(-c2ccc(C)c(Cl)c2)c(C)cc1-c1nccc2cc(S(=O)(=O)Nc3ccon3)ccc12 [Example 282, 1-(3′-chloro-5-methoxy-2,4′-dimethyl-4-biphenylyl)-N-3-isoxazolyl-6-isoquinolinesulfonamide] | – | 98.6 |
| COc1cc(-c2cc(C)cc(Cl)c2)c(C)cc1-c1nccc2cc(S(=O)(=O)Nc3ccon3)ccc12 [Example 283, 1-(3′-chloro-5-methoxy-2,5′-dimethyl-4-biphenylyl)-N-3-isoxazolyl-6-isoquinolinesulfonamide] | – | 37.5 |
| COc1cc(-c2ccc(F)c(Cl)c2)c(C)cc1-c1nccc2cc(S(=O)(=O)Nc3ccon3)ccc12 [Example 284, 1-(3′-chloro-4′-fluoro-5-methoxy-2-methyl-4-biphenylyl)-N-3-isoxazolyl-6-isoquinolinesulfonamide] | – | 22.8 |
| COc1cc(-c2cc(F)cc(Cl)c2)c(C)cc1-c1nccc2cc(S(=O)(=O)Nc3ccon3)ccc12 [Example 285, 1-(3′-chloro-5′-fluoro-5-methoxy-2-methyl-4-biphenylyl)-N-3-isoxazolyl-6-isoquinolinesulfonamide] | – | 58 |
| COc1cc(-c2ccc(Cl)c(F)c2)c(C)cc1-c1nccc2cc(S(=O)(=O)Nc3ccon3)ccc12 [Example 286, 1-(4′-chloro-3′-fluoro-5-methoxy-2-methyl-4-biphenylyl)-N-3-isoxazolyl-6-isoquinolinesulfonamide] | – | 188 |
| COc1cc(-c2ccc(C)c(Cl)c2)ccc1-c1nccc2cc(S(=O)(=O)Nc3ccon3)ccc12 [Example 287, 1-(3′-chloro-3-methoxy-4′-methyl-4-biphenylyl)-N-3-isoxazolyl-6-isoquinolinesulfonamide] | – | 111 |
| COc1cc(-c2ccc(Cl)c(C)c2)ccc1-c1nccc2cc(S(=O)(=O)Nc3ccon3)ccc12 [Example 288, 1-(4′-chloro-3-methoxy-3′-methyl-4-biphenylyl)-N-3-isoxazolyl-6-isoquinolinesulfonamide] | – | 77.5 |
| COc1cc(-c2cccc(F)c2)c(Cl)cc1-c1ncnc2cc(S(=O)(=O)Nc3ncc(F)cn3)ccc12 [Example 289, 4-(2-chloro-3′-fluoro-5-methoxy-4-biphenylyl)-N-(5-fluoro-2-pyrimidinyl)-7-quinazolinesulfonamide] | – | 89.5 |
| COc1cc(-c2ccc(Cl)c(F)c2)ccc1-c1nccc2cc(S(=O)(=O)Nc3ccon3)ccc12 [Example 290, 1-(4′-chloro-3′-fluoro-3-methoxy-4-biphenylyl)-N-3-isoxazolyl-6-isoquinolinesulfonamide] | – | 137 |
| COc1cc(-c2cccc(F)c2)c(Cl)cc1-c1cccc2cc(S(=O)(=O)Nc3ccon3)ccc12 [Example 291, 5-(2-chloro-3′-fluoro-5-methoxy-4-biphenylyl)-N-3-isoxazolyl-2-naphthalenesulfonamide] | – | 1160 |
| COc1cc(-c2cccc(F)c2)c(C#N)cc1-c1cccc2cc(S(=O)(=O)Nc3ccon3)ccc12 [Example 292, 5-(2-cyano-3′-fluoro-5-methoxy-4-biphenylyl)-N-3-isoxazolyl-2-naphthalenesulfonamide] | – | 256 |
| COc1cc(-c2ccc(Cl)c(F)c2)ccc1-c1nccc2cc(S(=O)(=O)Nc3ncccn3)ccc12 [Example 293, 1-(4′-chloro-3′-fluoro-3-methoxy-4-biphenylyl)-N-2-pyrimidinyl-6-isoquinolinesulfonamide] | – | 407 |
| COc1cc(-c2cccc(F)c2)c(Cl)cc1-c1nccc2cc(S(=O)(=O)Nc3ncc(F)cn3)ccc12 [Example 294, 1-(2-chloro-3′-fluoro-5-methoxy-4-biphenylyl)-N-(5-fluoro-2-pyrimidinyl)-6-isoquinolinesulfonamide] | – | 256 |
| COc1cc(-c2cc(C)c(Cl)c(F)c2)c(F)cc1-c1ncnc2cc(S(=O)(=O)Nc3ccon3)ccc12 [Example 295, 4-(4′-chloro-2,3′-difluoro-5-methoxy-5′-methyl-4-biphenylyl)-N-3-isoxazolyl-7-quinazolinesulfonamide] | – | 59 |
| COc1cc(-c2ccc(C)c(Cl)c2F)c(F)cc1-c1ncnc2cc(S(=O)(=O)Nc3ccon3)ccc12 [Example 296, 4-(3′-chloro-2,2′-difluoro-5-methoxy-4′-methyl-4-biphenylyl)-N-3-isoxazolyl-7-quinazolinesulfonamide] | – | 105 |
| COc1cc(-c2cc(C)cc(Cl)c2)c(F)cc1-c1ncnc2cc(S(=O)(=O)Nc3ccon3)ccc12 [Example 297, 4-(3′-chloro-2-fluoro-5-methoxy-5′-methyl-4-biphenylyl)-N-3-isoxazolyl-7-quinazolinesulfonamide] | – | 74 |
| COc1cc(-c2cc(Cl)cc(Cl)c2)c(F)cc1-c1ncnc2cc(S(=O)(=O)Nc3ccon3)ccc12 [Example 300, 4-(3′,5′-dichloro-2-fluoro-5-methoxy-4-biphenylyl)-N-3-isoxazolyl-7-quinazolinesulfonamide] | – | 26 |
